Calls of active or inactive are those of the source. For most assays here, no stated cut-off is given here; in the data, actives have a measured Kd and inactives only a lower limit.
biological target: T1, TGF-beta receptor type-1 (Homo sapiens, UniProt P36897); settings: not given
T1 sequence (P36897 whole entry): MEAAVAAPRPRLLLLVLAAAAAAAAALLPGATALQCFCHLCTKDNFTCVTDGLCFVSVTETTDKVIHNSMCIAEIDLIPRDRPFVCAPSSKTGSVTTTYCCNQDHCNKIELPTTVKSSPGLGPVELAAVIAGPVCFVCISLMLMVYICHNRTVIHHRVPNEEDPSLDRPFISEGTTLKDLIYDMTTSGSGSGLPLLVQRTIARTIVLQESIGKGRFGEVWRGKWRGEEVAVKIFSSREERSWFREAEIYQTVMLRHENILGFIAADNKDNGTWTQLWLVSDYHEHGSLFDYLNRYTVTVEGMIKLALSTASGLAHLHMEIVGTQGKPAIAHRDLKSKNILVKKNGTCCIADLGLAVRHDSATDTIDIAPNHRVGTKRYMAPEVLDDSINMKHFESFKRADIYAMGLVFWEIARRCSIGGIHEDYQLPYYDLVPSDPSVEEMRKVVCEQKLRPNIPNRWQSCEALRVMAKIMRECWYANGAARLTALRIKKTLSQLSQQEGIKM

**Q.** `Cc1cc(-c2cc(O)ccc2Cl)cc2nnc(Nc3ccc(OCCN4CCCC4)cc3)nc12` was tested. Which Kd did it give?
**A.** Its Kd is 0.002 µM (active).

**Q.** How did the Kd turn out when `CCN1CCN(Cc2ccc(-c3cc4c(N[C@H](C)c5ccccc5)ncnc4[nH]3)cc2)CC1` [AEE-788] was run?
**A.** The Kd was > 30 µM (inactive).

**Q.** How did the Kd turn out when `Cn1ncc(Cl)c1-c1cc(C(=O)N[C@H](CN)Cc2cccc(F)c2)sc1Cl` [AFURESERTIB] was run?
**A.** The Kd was > 30 µM (inactive).

biological target: Rho-associated protein kinase 2 (Homo sapiens, UniProt O75116); settings: not given
Sequence (O75116 whole entry): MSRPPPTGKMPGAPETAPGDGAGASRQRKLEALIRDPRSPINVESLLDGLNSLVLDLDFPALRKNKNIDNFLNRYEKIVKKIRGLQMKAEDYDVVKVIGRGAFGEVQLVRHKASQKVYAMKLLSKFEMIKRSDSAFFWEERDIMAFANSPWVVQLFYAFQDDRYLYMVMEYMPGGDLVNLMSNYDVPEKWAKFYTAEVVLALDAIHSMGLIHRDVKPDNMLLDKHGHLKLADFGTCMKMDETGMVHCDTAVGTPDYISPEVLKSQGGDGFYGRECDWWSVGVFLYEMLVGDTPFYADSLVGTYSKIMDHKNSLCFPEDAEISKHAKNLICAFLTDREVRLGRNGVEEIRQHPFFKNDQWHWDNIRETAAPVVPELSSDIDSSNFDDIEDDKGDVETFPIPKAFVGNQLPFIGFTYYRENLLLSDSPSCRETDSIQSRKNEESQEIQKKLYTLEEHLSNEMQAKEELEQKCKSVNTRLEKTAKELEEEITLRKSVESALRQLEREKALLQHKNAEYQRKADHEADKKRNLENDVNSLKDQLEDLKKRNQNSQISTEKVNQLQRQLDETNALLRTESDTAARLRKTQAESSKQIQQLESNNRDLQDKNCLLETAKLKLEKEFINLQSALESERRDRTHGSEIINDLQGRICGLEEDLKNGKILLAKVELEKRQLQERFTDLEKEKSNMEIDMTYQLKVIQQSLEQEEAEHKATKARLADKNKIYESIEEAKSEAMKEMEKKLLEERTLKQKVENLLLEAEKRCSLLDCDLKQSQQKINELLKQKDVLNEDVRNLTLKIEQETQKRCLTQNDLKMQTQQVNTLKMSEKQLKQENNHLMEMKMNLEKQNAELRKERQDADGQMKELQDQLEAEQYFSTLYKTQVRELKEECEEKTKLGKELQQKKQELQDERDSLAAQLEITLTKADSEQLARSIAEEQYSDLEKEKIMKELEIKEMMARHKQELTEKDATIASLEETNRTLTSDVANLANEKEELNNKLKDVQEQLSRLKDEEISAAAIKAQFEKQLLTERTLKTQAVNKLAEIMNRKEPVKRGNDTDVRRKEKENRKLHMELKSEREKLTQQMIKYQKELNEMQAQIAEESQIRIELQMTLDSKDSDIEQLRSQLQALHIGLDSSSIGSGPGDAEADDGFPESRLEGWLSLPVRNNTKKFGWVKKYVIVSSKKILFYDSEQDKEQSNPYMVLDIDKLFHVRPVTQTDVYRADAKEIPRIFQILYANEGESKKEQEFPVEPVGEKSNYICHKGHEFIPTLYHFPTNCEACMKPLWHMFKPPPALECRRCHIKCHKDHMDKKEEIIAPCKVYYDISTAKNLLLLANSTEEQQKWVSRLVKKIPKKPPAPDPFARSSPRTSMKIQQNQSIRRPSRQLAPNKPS

**Q.** For `Cc1cc(-c2cc(O)ccc2Cl)cc2nnc(Nc3ccc(OCCN4CCCC4)cc3)nc12`, which Kd is on record?
**A.** The Kd was > 30 µM (inactive).

**Q.** Which Kd does the source give for `CCN1CCN(Cc2ccc(-c3cc4c(N[C@H](C)c5ccccc5)ncnc4[nH]3)cc2)CC1` [AEE-788] here?
**A.** The Kd was > 30 µM (inactive).

**Q.** With `Cn1ncc(Cl)c1-c1cc(C(=O)N[C@H](CN)Cc2cccc(F)c2)sc1Cl` [AFURESERTIB] as the compound, how does the Kd read?
**A.** Its Kd is 4.73 µM (active).

biological target: Cyclin-dependent kinase 6 (Homo sapiens, UniProt Q00534); settings: not given
Sequence (Q00534 whole entry): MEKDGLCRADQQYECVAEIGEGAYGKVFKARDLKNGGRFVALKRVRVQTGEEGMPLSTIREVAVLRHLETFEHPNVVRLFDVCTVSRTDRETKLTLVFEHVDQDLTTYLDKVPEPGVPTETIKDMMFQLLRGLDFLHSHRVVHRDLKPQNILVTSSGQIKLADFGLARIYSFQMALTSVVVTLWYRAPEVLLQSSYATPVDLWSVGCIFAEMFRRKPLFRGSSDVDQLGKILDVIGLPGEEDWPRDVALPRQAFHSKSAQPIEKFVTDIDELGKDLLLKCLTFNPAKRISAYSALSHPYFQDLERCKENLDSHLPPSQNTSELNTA

**Q.** With `Cc1cc(-c2cc(O)ccc2Cl)cc2nnc(Nc3ccc(OCCN4CCCC4)cc3)nc12` as the compound, how does the Kd read?
**A.** Its Kd is > 30 µM (inactive).

**Q.** How did the Kd turn out when `CCN1CCN(Cc2ccc(-c3cc4c(N[C@H](C)c5ccccc5)ncnc4[nH]3)cc2)CC1` [AEE-788] was run?
**A.** The Kd was > 30 µM (inactive).

**Q.** How did the Kd turn out when `Cn1ncc(Cl)c1-c1cc(C(=O)N[C@H](CN)Cc2cccc(F)c2)sc1Cl` [AFURESERTIB] was run?
**A.** The Kd was > 30 µM (inactive).

biological target: Dual specificity tyrosine-phosphorylation-regulated kinase 1A (Homo sapiens, UniProt Q13627); settings: not given

**Q.** How did the Kd turn out when `Cc1cc(-c2cc(O)ccc2Cl)cc2nnc(Nc3ccc(OCCN4CCCC4)cc3)nc12` was run?
**A.** Its Kd is > 30 µM (inactive).

**Q.** How did the Kd turn out when `CCN1CCN(Cc2ccc(-c3cc4c(N[C@H](C)c5ccccc5)ncnc4[nH]3)cc2)CC1` [AEE-788] was run?
**A.** Its Kd is > 30 µM (inactive).

**Q.** With `Cn1ncc(Cl)c1-c1cc(C(=O)N[C@H](CN)Cc2cccc(F)c2)sc1Cl` [AFURESERTIB] as the compound, how does the Kd read?
**A.** Its Kd is > 30 µM (inactive).

biological target: Glycogen synthase kinase-3 beta (Homo sapiens, UniProt P49841); settings: not given
Sequence (P49841 whole entry): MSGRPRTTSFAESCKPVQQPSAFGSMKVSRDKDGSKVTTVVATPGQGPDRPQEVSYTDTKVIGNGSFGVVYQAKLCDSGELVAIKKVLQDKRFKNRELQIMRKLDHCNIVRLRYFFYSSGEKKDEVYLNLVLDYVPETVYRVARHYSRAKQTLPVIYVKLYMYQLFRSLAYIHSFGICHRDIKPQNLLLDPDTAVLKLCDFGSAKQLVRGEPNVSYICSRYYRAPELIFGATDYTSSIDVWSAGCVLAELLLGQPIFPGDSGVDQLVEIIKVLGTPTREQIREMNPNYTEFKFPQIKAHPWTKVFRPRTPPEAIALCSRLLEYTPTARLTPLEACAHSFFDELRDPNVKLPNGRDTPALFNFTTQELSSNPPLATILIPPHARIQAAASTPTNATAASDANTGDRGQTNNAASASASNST

**Q.** How did the Kd turn out when `Cc1cc(-c2cc(O)ccc2Cl)cc2nnc(Nc3ccc(OCCN4CCCC4)cc3)nc12` was run?
**A.** Its Kd is > 30 µM (inactive).

**Q.** How did the Kd turn out when `CCN1CCN(Cc2ccc(-c3cc4c(N[C@H](C)c5ccccc5)ncnc4[nH]3)cc2)CC1` [AEE-788] was run?
**A.** Its Kd is > 30 µM (inactive).

**Q.** `Cn1ncc(Cl)c1-c1cc(C(=O)N[C@H](CN)Cc2cccc(F)c2)sc1Cl` [AFURESERTIB] was tested. Which Kd did it give?
**A.** The Kd was > 30 µM (inactive).

biological target: T2, RNA cytidine acetyltransferase (Homo sapiens, UniProt Q9H0A0); settings: not given
T2 sequence (Q9H0A0 whole entry): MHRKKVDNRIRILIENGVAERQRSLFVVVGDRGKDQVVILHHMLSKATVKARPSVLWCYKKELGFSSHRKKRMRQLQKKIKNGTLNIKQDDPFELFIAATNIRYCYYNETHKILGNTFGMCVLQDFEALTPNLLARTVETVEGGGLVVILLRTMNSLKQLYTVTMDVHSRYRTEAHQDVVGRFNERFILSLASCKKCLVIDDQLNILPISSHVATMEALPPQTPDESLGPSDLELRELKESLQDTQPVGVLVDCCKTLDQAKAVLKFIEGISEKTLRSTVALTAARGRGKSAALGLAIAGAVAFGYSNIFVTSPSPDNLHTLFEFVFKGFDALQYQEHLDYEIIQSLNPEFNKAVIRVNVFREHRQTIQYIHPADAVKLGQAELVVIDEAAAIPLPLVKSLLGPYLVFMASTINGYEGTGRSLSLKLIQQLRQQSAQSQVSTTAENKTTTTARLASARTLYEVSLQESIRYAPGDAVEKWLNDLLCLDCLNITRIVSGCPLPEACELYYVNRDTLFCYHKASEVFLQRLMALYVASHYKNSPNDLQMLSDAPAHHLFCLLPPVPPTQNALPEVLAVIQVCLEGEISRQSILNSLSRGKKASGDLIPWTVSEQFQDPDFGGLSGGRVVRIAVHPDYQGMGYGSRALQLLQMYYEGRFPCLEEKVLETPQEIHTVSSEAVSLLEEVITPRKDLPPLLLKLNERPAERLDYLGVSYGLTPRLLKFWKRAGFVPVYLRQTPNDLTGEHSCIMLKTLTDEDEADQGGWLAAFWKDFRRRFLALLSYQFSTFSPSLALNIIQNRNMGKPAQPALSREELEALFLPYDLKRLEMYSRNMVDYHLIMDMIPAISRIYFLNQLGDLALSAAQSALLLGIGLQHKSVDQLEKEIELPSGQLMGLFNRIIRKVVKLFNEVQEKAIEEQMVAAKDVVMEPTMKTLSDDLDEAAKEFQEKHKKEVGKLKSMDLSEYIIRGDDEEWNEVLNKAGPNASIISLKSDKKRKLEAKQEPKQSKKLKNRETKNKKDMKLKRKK

**Q.** How did the Kd turn out when `Cc1cc(-c2cc(O)ccc2Cl)cc2nnc(Nc3ccc(OCCN4CCCC4)cc3)nc12` was run?
**A.** The Kd was > 30 µM (inactive).

**Q.** With `CCN1CCN(Cc2ccc(-c3cc4c(N[C@H](C)c5ccccc5)ncnc4[nH]3)cc2)CC1` [AEE-788] as the compound, how does the Kd read?
**A.** Its Kd is > 30 µM (inactive).

**Q.** For `Cn1ncc(Cl)c1-c1cc(C(=O)N[C@H](CN)Cc2cccc(F)c2)sc1Cl` [AFURESERTIB], which Kd is on record?
**A.** Its Kd is > 30 µM (inactive).

biological target: Ribosomal protein S6 kinase beta-1 (Homo sapiens, UniProt P23443); settings: not given
Sequence (P23443 whole entry): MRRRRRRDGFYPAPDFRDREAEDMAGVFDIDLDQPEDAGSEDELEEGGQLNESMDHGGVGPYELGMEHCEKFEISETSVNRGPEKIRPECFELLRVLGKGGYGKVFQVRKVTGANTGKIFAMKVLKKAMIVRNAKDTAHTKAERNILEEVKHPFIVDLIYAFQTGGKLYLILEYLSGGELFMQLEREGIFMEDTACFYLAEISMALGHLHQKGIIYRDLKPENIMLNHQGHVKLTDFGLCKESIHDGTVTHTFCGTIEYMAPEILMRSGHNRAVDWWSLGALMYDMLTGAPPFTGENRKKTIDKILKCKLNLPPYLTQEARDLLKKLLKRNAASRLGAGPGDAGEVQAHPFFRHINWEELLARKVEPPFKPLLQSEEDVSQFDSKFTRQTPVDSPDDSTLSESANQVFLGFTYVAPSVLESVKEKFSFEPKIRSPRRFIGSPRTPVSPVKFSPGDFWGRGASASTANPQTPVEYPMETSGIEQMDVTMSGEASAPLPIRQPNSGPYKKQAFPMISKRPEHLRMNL

**Q.** Which Kd does the source give for `Cc1cc(-c2cc(O)ccc2Cl)cc2nnc(Nc3ccc(OCCN4CCCC4)cc3)nc12` here?
**A.** Its Kd is > 30 µM (inactive).

**Q.** Which Kd does the source give for `CCN1CCN(Cc2ccc(-c3cc4c(N[C@H](C)c5ccccc5)ncnc4[nH]3)cc2)CC1` [AEE-788] here?
**A.** The Kd was > 30 µM (inactive).

**Q.** For `Cn1ncc(Cl)c1-c1cc(C(=O)N[C@H](CN)Cc2cccc(F)c2)sc1Cl` [AFURESERTIB], which Kd is on record?
**A.** Its Kd is > 30 µM (inactive).

biological target: T3, Uncharacterized protein FLJ45252 (Homo sapiens, UniProt Q6ZSR9); settings: read-out: Kd apparent; k-562, colo 205, sk-n-be(2) and mv-4-11
T3 sequence (Q6ZSR9 whole entry): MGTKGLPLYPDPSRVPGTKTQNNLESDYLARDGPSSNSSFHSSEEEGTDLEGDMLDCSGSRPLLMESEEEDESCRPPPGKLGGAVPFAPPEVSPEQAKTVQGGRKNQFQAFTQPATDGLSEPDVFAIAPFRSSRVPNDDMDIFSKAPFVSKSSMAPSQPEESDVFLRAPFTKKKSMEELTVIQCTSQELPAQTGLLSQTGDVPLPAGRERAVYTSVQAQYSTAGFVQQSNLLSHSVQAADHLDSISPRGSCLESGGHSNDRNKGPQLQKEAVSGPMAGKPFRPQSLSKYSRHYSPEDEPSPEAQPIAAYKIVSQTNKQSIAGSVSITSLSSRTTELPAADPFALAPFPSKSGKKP

**Q.** For `Cc1cc(-c2cc(O)ccc2Cl)cc2nnc(Nc3ccc(OCCN4CCCC4)cc3)nc12`, which Kd is on record?
**A.** The Kd was > 30 µM (inactive).

**Q.** With `CCN1CCN(Cc2ccc(-c3cc4c(N[C@H](C)c5ccccc5)ncnc4[nH]3)cc2)CC1` [AEE-788] as the compound, how does the Kd read?
**A.** Its Kd is > 30 µM (inactive).

**Q.** Which Kd does the source give for `Cn1ncc(Cl)c1-c1cc(C(=O)N[C@H](CN)Cc2cccc(F)c2)sc1Cl` [AFURESERTIB] here?
**A.** Its Kd is > 30 µM (inactive).

biological target: T4, Signal recognition particle receptor subunit alpha (Homo sapiens, UniProt P08240); settings: not given
T4 sequence (P08240 whole entry): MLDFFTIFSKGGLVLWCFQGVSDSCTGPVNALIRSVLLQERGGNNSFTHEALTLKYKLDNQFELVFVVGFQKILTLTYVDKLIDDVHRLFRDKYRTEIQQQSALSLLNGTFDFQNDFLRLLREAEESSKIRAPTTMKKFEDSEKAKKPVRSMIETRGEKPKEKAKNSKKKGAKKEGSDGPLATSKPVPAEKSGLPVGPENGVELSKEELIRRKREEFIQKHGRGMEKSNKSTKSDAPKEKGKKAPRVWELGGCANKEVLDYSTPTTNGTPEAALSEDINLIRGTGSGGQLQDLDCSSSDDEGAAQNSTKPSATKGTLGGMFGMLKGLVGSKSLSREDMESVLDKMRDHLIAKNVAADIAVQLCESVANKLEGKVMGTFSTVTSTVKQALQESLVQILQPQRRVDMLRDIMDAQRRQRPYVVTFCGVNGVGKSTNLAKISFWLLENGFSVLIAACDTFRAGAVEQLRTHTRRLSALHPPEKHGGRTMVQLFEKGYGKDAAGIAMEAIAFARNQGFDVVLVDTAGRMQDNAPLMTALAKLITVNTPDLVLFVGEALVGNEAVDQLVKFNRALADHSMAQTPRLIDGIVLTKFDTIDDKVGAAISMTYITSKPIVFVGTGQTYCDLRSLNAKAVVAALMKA

**Q.** With `Cc1cc(-c2cc(O)ccc2Cl)cc2nnc(Nc3ccc(OCCN4CCCC4)cc3)nc12` as the compound, how does the Kd read?
**A.** Its Kd is > 30 µM (inactive).

**Q.** With `CCN1CCN(Cc2ccc(-c3cc4c(N[C@H](C)c5ccccc5)ncnc4[nH]3)cc2)CC1` [AEE-788] as the compound, how does the Kd read?
**A.** The Kd was > 30 µM (inactive).

biological target: Platelet-derived growth factor receptor beta (Homo sapiens, UniProt P09619); settings: not given
Sequence (P09619 whole entry): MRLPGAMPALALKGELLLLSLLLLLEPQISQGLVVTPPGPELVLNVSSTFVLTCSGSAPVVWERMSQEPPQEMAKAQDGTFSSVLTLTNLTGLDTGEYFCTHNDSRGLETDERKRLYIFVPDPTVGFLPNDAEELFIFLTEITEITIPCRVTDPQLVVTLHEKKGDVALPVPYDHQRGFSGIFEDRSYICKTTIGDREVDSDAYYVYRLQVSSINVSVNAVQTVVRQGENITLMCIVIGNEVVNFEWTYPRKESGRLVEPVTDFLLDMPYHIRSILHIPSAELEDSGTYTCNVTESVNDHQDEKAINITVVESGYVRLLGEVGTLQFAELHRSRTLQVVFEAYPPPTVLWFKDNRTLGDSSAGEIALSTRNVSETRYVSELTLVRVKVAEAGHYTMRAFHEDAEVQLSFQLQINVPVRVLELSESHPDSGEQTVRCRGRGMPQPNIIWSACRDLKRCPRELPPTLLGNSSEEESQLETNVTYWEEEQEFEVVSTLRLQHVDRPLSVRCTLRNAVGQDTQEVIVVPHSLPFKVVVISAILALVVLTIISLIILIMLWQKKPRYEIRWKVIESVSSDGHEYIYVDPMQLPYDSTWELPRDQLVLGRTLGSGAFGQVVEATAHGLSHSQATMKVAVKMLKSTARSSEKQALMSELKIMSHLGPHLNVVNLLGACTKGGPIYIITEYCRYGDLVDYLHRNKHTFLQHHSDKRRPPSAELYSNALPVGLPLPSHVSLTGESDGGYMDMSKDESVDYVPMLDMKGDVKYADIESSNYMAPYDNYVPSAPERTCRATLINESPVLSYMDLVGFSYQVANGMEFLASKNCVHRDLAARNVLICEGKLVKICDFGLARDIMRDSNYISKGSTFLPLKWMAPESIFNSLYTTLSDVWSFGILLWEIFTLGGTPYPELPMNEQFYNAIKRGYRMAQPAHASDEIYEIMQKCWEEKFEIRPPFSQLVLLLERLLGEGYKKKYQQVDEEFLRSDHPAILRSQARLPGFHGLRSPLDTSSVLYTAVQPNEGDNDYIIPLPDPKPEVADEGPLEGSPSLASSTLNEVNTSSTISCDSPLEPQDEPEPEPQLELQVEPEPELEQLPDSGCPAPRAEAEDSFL

**Q.** How did the Kd turn out when `Cc1cc(-c2cc(O)ccc2Cl)cc2nnc(Nc3ccc(OCCN4CCCC4)cc3)nc12` was run?
**A.** The Kd was > 30 µM (inactive).

**Q.** `CCN1CCN(Cc2ccc(-c3cc4c(N[C@H](C)c5ccccc5)ncnc4[nH]3)cc2)CC1` [AEE-788] was tested. Which Kd did it give?
**A.** Its Kd is 9.38 µM (active).

**Q.** For `Cn1ncc(Cl)c1-c1cc(C(=O)N[C@H](CN)Cc2cccc(F)c2)sc1Cl` [AFURESERTIB], which Kd is on record?
**A.** Its Kd is > 30 µM (inactive).

biological target: Mitogen-activated protein kinase 3 (Homo sapiens, UniProt P27361); settings: not given
Sequence (P27361 whole entry): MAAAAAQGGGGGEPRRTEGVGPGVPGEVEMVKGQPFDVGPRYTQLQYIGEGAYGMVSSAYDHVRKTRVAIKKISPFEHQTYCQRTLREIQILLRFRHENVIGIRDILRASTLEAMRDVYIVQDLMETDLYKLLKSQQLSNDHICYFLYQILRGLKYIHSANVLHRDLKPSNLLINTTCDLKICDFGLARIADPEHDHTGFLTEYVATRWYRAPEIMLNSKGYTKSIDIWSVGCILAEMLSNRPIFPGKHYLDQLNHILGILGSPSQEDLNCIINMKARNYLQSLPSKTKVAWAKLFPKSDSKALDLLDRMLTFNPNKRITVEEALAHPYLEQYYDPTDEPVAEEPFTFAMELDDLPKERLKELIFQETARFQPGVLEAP

**Q.** Which Kd does the source give for `Cc1cc(-c2cc(O)ccc2Cl)cc2nnc(Nc3ccc(OCCN4CCCC4)cc3)nc12` here?
**A.** The Kd was > 30 µM (inactive).

**Q.** `CCN1CCN(Cc2ccc(-c3cc4c(N[C@H](C)c5ccccc5)ncnc4[nH]3)cc2)CC1` [AEE-788] was tested. Which Kd did it give?
**A.** Its Kd is > 30 µM (inactive).

**Q.** Which Kd does the source give for `Cn1ncc(Cl)c1-c1cc(C(=O)N[C@H](CN)Cc2cccc(F)c2)sc1Cl` [AFURESERTIB] here?
**A.** The Kd was > 30 µM (inactive).
